Data: patent publication US10577399B2, “Modified lantibiotics and methods of making and using the modified lantibiotics” (priority 2016, dated 2020)
≈ marks a conversion by molar mass, not a printed value. Read-outs that look alike come from different tables or passages of the source. No end group written: not given here.

Columns and labels:
M. luteus ATCC 10240 = format: cell-based, Micrococcus luteus; settings: for MIC (μg/mL) M. luteus: Table 7, chemically modified analogs; for M. luteus ATCC 10240 MIC / M. luteus ATCC 10240 MLC: Table 11
Experimental: (§1) Minimum Inhibitory Concentrations (MICs) were determined according to previously published protocol^31. A stock solution of the antibiotics tested was first suspended in 50% acetonitrile (ACN) at a concentration 640 μg/mL. This stock was subsequently diluted 2-fold until a final concentration 0.156 μg/mL was reached. Subsequently, 10 μl of each dilution was placed into a well on a 96 well microtiter plate. M. luteus ATCC 10240, S. pneumoniae, and B. subtilis PY79 were grown overnight in THyex at 37° C. Cultures were diluted in the morning to 0.1 OD600 and allowed to grow to 0.6 OD600. This culture was diluted a 100-fold in fresh THyex media and then 400 μl of this culture was added to 10 mL of fresh THyex. The suspension contains approximately 10^5 colony forming units (CFUs). The bacterial suspension (190 μL) was added to each well containing 10 μL of antibiotic suspension or solvent blank. […] Following the 15 minute pretreatment, 190 μL was added to each well as described above. The MIC is described as the […] concentration of antibiotic that prevented visible growth after 24 hours.
FIG. 11 illustrates the bioactivity of various core peptide mutants of mutacin 1130. The activity of the core mutant peptides is expressed as a ratio of the area of the zone of inhibition of each mutant strain to the area of the zone of inhibition of the wild-type strain against indicator strain of Micrococcus luteus. […] The deferred antagonism assay is an overlay assay of the indicator strain onto plates containing heat killed colonies of the mutacin producer strain after growing overnight. Core peptide mutants having inhibitory activity were isolated and the purified products were further evaluated by a standard minimum inhibitory concentration (MIC) assay.

S. pneumoniae ATCC 27336 = format: cell-based, Streptococcus pneumoniae; settings: for MIC (μg/mL) S. pneumoniae: Table 7, S. pneumoniae ATCC 27336; for S. pneumonia ATCC 27336 MIC / S. pneumonia ATCC 27336 MLC: Table 11
Experimental: as §1, with “hours. […]” for “hours.”

C. accolens KPL 1818 = test: MIC/MLC assay against C. accolens KPL 1818; format: cell-based; settings: THyex broth with 1% Tween 80
S. aureus ATCC 25923 = test: MIC/MLC assay against S. aureus; format: cell-based, Staphylococcus aureus; settings: Table 11
C. accolens ATCC 49725 = test: MIC/MLC assay against C. accolens ATCC 49725; format: cell-based; settings: THyex broth with 1% Tween 80
[1] = listed as diaminoheptane conjugate

## C=C1NC(=O)[C@H](Cc2c[nH]c3ccccc23)NC(=O)[C@H](NC(=O)[C@H](CCCCN)NC(=O)[C@@H](N)Cc2ccccc2)CSC[C@@H](C(=O)N[C@H]2C(=O)N3CCC[C@H]3C(=O)NCC(=O)N[C@H](C(=O)N[C@@H](C)C(=O)N[C@@H](CCCNC(=N)N)C(=O)N/C(=C\C)C(=O)NCC(=O)N[C@@H]3CSC[C@@H]4NC(=O)[C@H](Cc5ccc(O)cc5)NC(=O)[C@@H](CSC[C@@H](C(=O)NCc5ccc(Cl)cc5)NC4=O)NC(=O)[C@H](CC(N)=O)NC(=O)[C@H](Cc4ccccc4)NC3=O)CS[C@H]2C)NC(=O)[C@H](CC(C)C)NC1=O [Mutacin 1140 - chlorophenylalanine]
M. luteus ATCC 10240; listed as chlorophenylalanine conjugate
  MIC (μg/mL) M. luteus: 1.0 µg/mL (≈ 0.411 µM)

## C=C1NC(=O)[C@H](Cc2c[nH]c3ccccc23)NC(=O)[C@H](NC(=O)[C@H](CCCCN)NC(=O)[C@@H](N)Cc2ccccc2)CSC[C@@H](C(=O)N[C@H]2C(=O)N3CCC[C@H]3C(=O)NCC(=O)N[C@H](C(=O)N[C@@H](C)C(=O)N[C@@H](CCCNC(=N)N)C(=O)N/C(=C\C)C(=O)NCC(=O)N[C@@H]3CSC[C@@H]4NC(=O)[C@H](Cc5ccc(O)cc5)NC(=O)[C@@H](CSC[C@@H](C(=O)NCc5ccc(Cl)c(Cl)c5)NC4=O)NC(=O)[C@H](CC(N)=O)NC(=O)[C@H](Cc4ccccc4)NC3=O)CS[C@H]2C)NC(=O)[C@H](CC(C)C)NC1=O [Mutacin 1140 - di-chlorophenylalanine]
S. pneumoniae ATCC 27336; listed as di-chlorophenylalanine conjugate
  MIC (μg/mL) S. pneumoniae: 8.0 µg/mL (≈ 3.24 µM)

## C=C1NC(=O)[C@H](Cc2c[nH]c3ccccc23)NC(=O)[C@H](NC(=O)[C@H](CCCCN)NC(=O)[C@@H](N)Cc2ccccc2)CSC[C@@H](C(=O)N[C@H]2C(=O)N3CCC[C@H]3C(=O)NCC(=O)N[C@H](C(=O)N[C@@H](C)C(=O)N[C@@H](CCCNC(=N)N)C(=O)N/C(=C\C)C(=O)NCC(=O)N[C@@H]3CSC[C@@H]4NC(=O)[C@H](Cc5ccc(O)cc5)NC(=O)[C@@H](CSC[C@@H](C(=O)NCCCCCCCN)NC4=O)NC(=O)[C@H](CC(N)=O)NC(=O)[C@H](Cc4ccccc4)NC3=O)CS[C@H]2C)NC(=O)[C@H](CC(C)C)NC1=O [Mutacin 1140 - diaminoheptane]
M. luteus ATCC 10240
  MIC (μg/mL) M. luteus: 0.25 µg/mL (≈ 0.103 µM)
M. luteus ATCC 10240; [1]
  MIC (μg/mL) M. luteus: 0.5 µg/mL (≈ 0.206 µM)
S. pneumoniae ATCC 27336; [1]
  MIC (μg/mL) S. pneumoniae: 2.0 µg/mL (≈ 0.825 µM)

## C=C1NC(=O)[C@H](Cc2c[nH]c3ccccc23)NC(=O)[C@H](NC(=O)[C@H](CCCCN)NC(=O)[C@@H](N)Cc2ccccc2)CSC[C@@H](C(=O)N[C@H]2C(=O)N3CCC[C@H]3C(=O)NCC(=O)N[C@H](C(=O)N[C@@H](C)C(=O)N[C@@H](CCCNC(=N)N)C(=O)N/C(=C\C)C(=O)NCC(=O)N[C@@H]3CSC[C@@H]4NC(=O)[C@H](Cc5ccc(O)cc5)NC(=O)[C@@H](CSC[C@@H](C(=O)NC)NC4=O)NC(=O)[C@H](CC(N)=O)NC(=O)[C@H](Cc4ccccc4)NC3=O)CS[C@H]2C)NC(=O)[C@H](CC(C)C)NC1=O [Mutacin 1140 - methylamine]
M. luteus ATCC 10240
  MIC (μg/mL) M. luteus: 0.125 µg/mL (≈ 0.0538 µM)
S. pneumoniae ATCC 27336
  MIC (μg/mL) S. pneumoniae: 0.5 µg/mL (≈ 0.215 µM)

## A12T:T14G: core peptide mutant of mutacin 1140, positions 12, 14 replaced by Threonine and Glycine (FKSWSLCTPGCTRGGSFNSYCC; ends and bridges not checked; cysteine pairing not given here; UniProt O68586 42-63, looked up, variant A12T T14G)
C. accolens KPL 1818
  C. accolens KPL 1818 MIC: 0.5 micrograms per milliliter
  C. accolens KPL 1818 MLC: 1 micrograms per milliliter
M. luteus ATCC 10240
  M. luteus ATCC 10240 MIC: 0.25 micrograms per milliliter
  M. luteus ATCC 10240 MLC: 0.25 micrograms per milliliter
S. aureus ATCC 25923
  S. aureus ATCC 25923 MIC: >32 micrograms per milliliter
  S. aureus ATCC 25923 MLC: >32 micrograms per milliliter
S. pneumoniae ATCC 27336
  S. pneumonia ATCC 27336 MIC: 2 micrograms per milliliter
  S. pneumonia ATCC 27336 MLC: 2 micrograms per milliliter
C. accolens ATCC 49725
  C. accolens ATCC 49725 MIC: 0.125 micrograms per milliliter
  C. accolens ATCC 49725 MLC: 0.25 micrograms per milliliter

## R13A:T14A: core peptide mutant of mutacin 1140, positions 13, 14 replaced by Alanine and Alanine (FKSWSLCTPGCAAAGSFNSYCC; UniProt O68586 42-63, looked up, variant R13A T14A)
C. accolens KPL 1818
  C. accolens KPL 1818 MIC: 0.5 micrograms per milliliter
  C. accolens KPL 1818 MLC: 0.5 micrograms per milliliter
M. luteus ATCC 10240
  M. luteus ATCC 10240 MIC: 0.25 micrograms per milliliter
  M. luteus ATCC 10240 MLC: 0.5 micrograms per milliliter
S. aureus ATCC 25923
  S. aureus ATCC 25923 MIC: 32 micrograms per milliliter
  S. aureus ATCC 25923 MLC: 32 micrograms per milliliter
S. pneumoniae ATCC 27336
  S. pneumonia ATCC 27336 MIC: 2 micrograms per milliliter
  S. pneumonia ATCC 27336 MLC: 2 micrograms per milliliter
C. accolens ATCC 49725
  C. accolens ATCC 49725 MIC: 0.5 micrograms per milliliter
  C. accolens ATCC 49725 MLC: 0.5 micrograms per milliliter

## S5A:A12S dehydrated: core peptide mutant of mutacin 1140, positions 5, 12 replaced by Alanine and Serine; dehydrated form (FKSWALCTPGCSRTGSFNSYCC; ends and bridges not checked; also: dehydrated form; UniProt O68586 42-63, looked up, variant S5A A12S)
C. accolens KPL 1818
  C. accolens KPL 1818 MIC: 0.5 micrograms per milliliter
  C. accolens KPL 1818 MLC: 1 micrograms per milliliter
M. luteus ATCC 10240
  M. luteus ATCC 10240 MIC: 0.125 micrograms per milliliter
  M. luteus ATCC 10240 MLC: 0.25 micrograms per milliliter
S. aureus ATCC 25923
  S. aureus ATCC 25923 MIC: 16 micrograms per milliliter
  S. aureus ATCC 25923 MLC: 32 micrograms per milliliter
S. pneumoniae ATCC 27336
  S. pneumonia ATCC 27336 MIC: 0.125 micrograms per milliliter
  S. pneumonia ATCC 27336 MLC: 0.125 micrograms per milliliter
C. accolens ATCC 49725
  C. accolens ATCC 49725 MIC: 0.25 micrograms per milliliter
  C. accolens ATCC 49725 MLC: 0.25 micrograms per milliliter

## S5A:A12S un-dehydrated: core peptide mutant of mutacin 1140, positions 5, 12 replaced by Alanine and Serine; un-dehydrated form (FKSWALCTPGCSRTGSFNSYCC; ends and bridges not checked; cysteine pairing not given here; UniProt O68586 42-63, looked up, variant S5A A12S)
M. luteus ATCC 10240
  M. luteus ATCC 10240 MIC: 0.125 micrograms per milliliter
  M. luteus ATCC 10240 MLC: 0.25 micrograms per milliliter
S. aureus ATCC 25923
  S. aureus ATCC 25923 MIC: 16 micrograms per milliliter
  S. aureus ATCC 25923 MLC: 16 micrograms per milliliter
S. pneumoniae ATCC 27336
  S. pneumonia ATCC 27336 MIC: 0.125 micrograms per milliliter
  S. pneumonia ATCC 27336 MLC: 0.125 micrograms per milliliter

## S5G:R13A:T14A: core peptide mutant of mutacin 1140, positions 5, 13 and 14 replaced by Glycine, Alanine and Alanine (FKSWGLCTPGCAAAGSFNSYCC; ends and bridges not checked; cysteine pairing not given here; UniProt O68586 42-63, looked up, variant S5G R13A T14A)
C. accolens KPL 1818
  C. accolens KPL 1818 MIC: >4 micrograms per milliliter
  C. accolens KPL 1818 MLC: >4 micrograms per milliliter
M. luteus ATCC 10240
  M. luteus ATCC 10240 MIC: 2 micrograms per milliliter
  M. luteus ATCC 10240 MLC: 16 micrograms per milliliter
S. aureus ATCC 25923
  S. aureus ATCC 25923 MIC: >32 micrograms per milliliter
  S. aureus ATCC 25923 MLC: >32 micrograms per milliliter
S. pneumoniae ATCC 27336
  S. pneumonia ATCC 27336 MIC: 8 micrograms per milliliter
  S. pneumonia ATCC 27336 MLC: >16 micrograms per milliliter
C. accolens ATCC 49725
  C. accolens ATCC 49725 MIC: >4 micrograms per milliliter
  C. accolens ATCC 49725 MLC: >4 micrograms per milliliter
